From paper PMC6009905, “Kushenol A and 8-prenylkaempferol, tyrosinase inhibitors, derived from Sophora flavescens” (Journal of Enzyme Inhibition and Medicinal Chemistry, 2018)
“And” between values parts separate entries of the source, which are not always exact repeats. Identical values can stand only once.

Experiments:
tyrosinase [1] = biological target: tyrosinase; design: method as in PMID 12951485, PMID 18175961; conditions: read-out: IC50 on tyrosinase (previous report); cited from earlier work
tyrosinase [2] = biological target: T1, tyrosinase (Agaricus bisporus, UniProt C7FF04); experiment: Tyrosinase enzyme kinetics (Lineweaver-Burk plots, secondary re-plot); type: biochemical; conditions: 0.62-10 mM L-tyrosine
Description: Enzyme assay was performed according to the modified methods in the previous papers. For the calculation of inhibitory activity, 130 μL of tyrosinase (about 46 units/mL) solvated in 0.1 mM phosphate buffer (pH: 6.8) and 20 μL of 1–0.0078 mM concentrations of the inhibitors were mixed in a 96-well plate, and then 50 μL of 2 mM L-tyrosine in buffer was added in mixture. To test the enzyme kinetic study, 130 μL of tyrosinase and 20 μL of inhibitor were also mixed, and then 50 μL of 0.62–10 mM L-tyrosine was added in a 96-well plate. The mixture was recorded at UV-Vis 475 nm during 20 min. The inhibitory ratio was calculated according to the following equation: Inhibitory activity rate (%)=100–[(S20–S0/C20–C0]×100 where C20 and S20 are the intensity of control and inhibitor after 20 min, C0 and S0 are the intensity of control and inhibitor at 0 min.
This study confirmed the inhibitory mechanism of compounds 1–4 towards tyrosinase using enzyme kinetics. Enzyme kinetics were performed based on academic methods that examine a variety of substrate concentrations. The results were represented by Lineweaver–Burk plots, which confirmed the inhibition to […]. […]
Target sequence in this assay (C7FF04 2-392): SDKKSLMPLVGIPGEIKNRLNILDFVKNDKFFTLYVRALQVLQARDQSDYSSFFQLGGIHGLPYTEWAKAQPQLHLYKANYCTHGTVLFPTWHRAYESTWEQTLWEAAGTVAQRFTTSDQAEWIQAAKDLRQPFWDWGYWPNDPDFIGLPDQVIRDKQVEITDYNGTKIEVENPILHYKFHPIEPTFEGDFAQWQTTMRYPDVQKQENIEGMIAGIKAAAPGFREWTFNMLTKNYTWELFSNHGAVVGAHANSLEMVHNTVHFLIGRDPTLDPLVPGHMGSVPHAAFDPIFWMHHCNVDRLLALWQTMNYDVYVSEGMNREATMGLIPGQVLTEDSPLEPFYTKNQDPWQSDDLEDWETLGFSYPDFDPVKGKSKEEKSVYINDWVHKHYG

ABTS radical assay = conditions: triplicate; for IC50: log-dose inhibition curve, read-out: Scavenging activity of compounds on ABTS radical, SC50
Description: The ABTS radical cation assay was modified the method of Re et al.[15] Briefly, the mixture of 7.4 mM ABTS solution with 2.6 mM potassium persulfate incubated at room temperature in dark for 24 h. […] Fifty microliter of the inhibitor was reacted with 950 μL of the ABTS solution. Absorbance value was monitored during 10 min at 732 nm using a spectrophotometer. The free radical value (SC50) was calculated by the log-dose inhibition curve. Scavenging activity (%)=[1–(extract absorbance/control absorbance)]×100.

HepG2 cells = experiment: Measurement of intracellular ROS in H2O2-treated HepG2 cells; type: cell-based, Human; conditions: 10 μM inhibitor 1 h, then 2 mM H2O2 30 min; negative control 100.0%, positive control 701.5%
Description: Human hepatoma HepG2 cells were cultured in DMEM supplemented with 10% FBS, 100 units/mL of penicillin and 100 μg/mL of streptomycin. Cells were maintained incubation at 37 °C under a 5% CO2[16].
The concentration of intracellular ROS was measured using a carboxy-H2DCFDA probe, as previously described. HepG2 cells were seeded into six-well plates at a density of 1 × 10^5 cells/mL and incubated for 24 h. After treatment with 10 μM concentrations of inhibitors 1–5 for 1 h, H2O2 (2 mM) was added to plates for 30 min. Cells were then incubated with 10 μM carboxy-H2DCFDA for 20 min, then cells were washed and harvested. Cells were immediately examined using a flow cytometer (Cytomics FC500; Beckman, Miami, FL).
To examine their antioxidant activity in vitro, pure compounds 1–5 were added to HepG2 cells, followed by addition of 2 mM H2O2. As shown in Figure 5(A), the respective negative (H2O2: –; I: –) and positive (H2O2: +; I: –) controls generated reactive oxygen species (ROS) of 100.0% ± 9.1% and 701.5% ± 46.9%. […] The viability of HepG2 cells following treatment with all compounds 1–5 at 10 μM ranged from 100.1% ± 6.1% to 103.8% ± 5.1% (Figure S6). Compound 2 caused an […].

tyrosinase [3] = biological target: T1, tyrosinase; experiment: Tyrosinase assay (conversion of L-tyrosine to L-DOPA, UV-Vis 475 nm); type: biochemical; design: purchased Sigma-Aldrich T3824; conditions: L-tyrosine substrate, triplicate; for inhibition at 100 µM: 100 μM inhibitor, read-out: Inhibitory activity of compounds on tyrosinase, 100 μM (%); for IC50: read-out: Inhibitory activity of compounds on tyrosinase, IC50
Description: Enzyme assay was performed according to the modified methods in the previous papers. For the calculation of inhibitory activity, 130 μL of tyrosinase (about 46 units/mL) solvated in 0.1 mM phosphate buffer (pH: 6.8) and 20 μL of 1–0.0078 mM concentrations of the inhibitors were mixed in a 96-well plate, and then 50 μL of 2 mM L-tyrosine in buffer was added in mixture. To test the enzyme kinetic study, 130 μL of tyrosinase and 20 μL of inhibitor were also mixed, and then 50 μL of 0.62–10 mM L-tyrosine was added in a 96-well plate.
Target sequence in this assay (C7FF04 1-392 limits assumed): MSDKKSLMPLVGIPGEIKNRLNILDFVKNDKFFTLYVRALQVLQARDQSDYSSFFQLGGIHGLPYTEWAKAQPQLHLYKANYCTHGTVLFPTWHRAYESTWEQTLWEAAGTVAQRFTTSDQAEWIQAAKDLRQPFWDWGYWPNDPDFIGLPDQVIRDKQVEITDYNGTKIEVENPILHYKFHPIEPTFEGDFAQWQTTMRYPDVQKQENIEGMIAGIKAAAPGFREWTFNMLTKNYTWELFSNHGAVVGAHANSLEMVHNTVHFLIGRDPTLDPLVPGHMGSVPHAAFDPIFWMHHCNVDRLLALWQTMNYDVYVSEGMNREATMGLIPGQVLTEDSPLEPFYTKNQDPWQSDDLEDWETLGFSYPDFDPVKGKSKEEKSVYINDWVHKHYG

For `C=C(C)[C@H](CC=C(C)C)Cc1c(O)cc(O)c2c1O[C@H](c1ccc(O)cc1O)CC2=O` [sophoraflavanone G], the IC50 (tyrosinase [1]) is given as 6.6 µM.

In the case of `C=C(C)C(CC=C(C)C)Cc1c(O)cc(O)c2c(=O)c(O)c(-c3ccc(O)cc3O)oc12` (stereo not shown) [Compound 3, kushenol C], the Binding mode (tyrosinase [2]) is reported as “non-competitive inhibitors”, the “Scavenging activity of compounds on ABTS radical, 25 μM (%)” value (shortened to “Scavenging activity of compounds … (%)”) (ABTS radical assay) is reported as 94.1 ± 0.2% and the IC50 (ABTS radical assay) is reported as 4.9 ± 0.3 µM. The ROS generation (HepG2 cells) was 391.7% ± 56.3%, the inhibition at 100 µM (tyrosinase [3]) was 81.1 ± 0.1% and the IC50 (tyrosinase [3]) was 24.1 ± 2.3 µM.

In the case of `O=C1O[C@H]([C@@H](O)CO)C(O)=C1O` [Ascorbic acid, reference compound], the “Scavenging activity of compounds … (%)” value (ABTS radical assay) is reported as 44.9 ± 0.9% and the IC50 (ABTS radical assay) is reported as 27.8 ± 0.5 µM.

For `COc1ccc(-c2coc3cc(O)ccc3c2=O)cc1` [Compound 4, formononetin], the Binding mode (tyrosinase [2]) was “non-competitive inhibitors”, the “Scavenging activity of compounds … (%)” value (ABTS radical assay) was 53.3 ± 2.4% and the IC50 (ABTS radical assay) was 22.8 ± 1.1 µM. It also gave an inhibition at 100 µM (tyrosinase [3]) of 91.9 ± 2% and an IC50 (tyrosinase [3]) of 19.9 ± 1.7 µM.

For `C=C(C)C(CCC(C)(C)O)Cc1c(O)cc(OC)c(C(=O)/C=C/c2ccc(O)cc2O)c1O` (stereo not shown) [kuraridinol], the IC50 (tyrosinase [1]) is given as 0.8 µM.

In the case of `C=C(C)[C@H](CC=C(C)C)Cc1c(O)cc(OC)c(C(=O)/C=C/c2ccc(O)cc2O)c1O` [kuraridin], the IC50 (tyrosinase [1]) is given as 0.6 µM.

For `C=C(C)[C@H](CC=C(C)C)Cc1c(O)cc(OC)c2c1O[C@H](c1ccc(O)cc1O)CC2=O` [kurarinone], the IC50 (tyrosinase [1]) is given as 6.2 µM.

With `CC(C)=CCc1c(O)cc(O)c2c(=O)c(O)c(-c3ccc(O)cc3)oc12` [Compound 2, 8-prenylkaempferol] the Binding mode (tyrosinase [2]) was “competitive inhibitor”, the “Scavenging activity of compounds … (%)” value (ABTS radical assay) was 93.2 ± 0.2% and the IC50 (ABTS radical assay) was 7.9 ± 0.3 µM. The ROS generation (HepG2 cells) was 435.3% ± 43.0%, the inhibition at 100 µM (tyrosinase [3]) was 90.4 ± 3% and the IC50 (tyrosinase [3]) was < 10 µM and 2.4 µM.

In the case of `C=C(C)[C@H](CC=C(C)C)Cc1c(O)cc(O)c2c1O[C@H](c1ccccc1O)CC2=O` [Compound 1, kushenol A], the Binding mode (tyrosinase [2]) is reported as “non-competitive inhibitors”, the “Scavenging activity of compounds … (%)” value (ABTS radical assay) is reported as 93.7 ± 0.3% and the IC50 (ABTS radical assay) is reported as 9.7 ± 0.1 µM. For the same compound, the inhibition at 100 µM (tyrosinase [3]) was 101 ± 3.3% and the IC50 (tyrosinase [3]) was < 10 µM and 1.1 µM.

For `CC(C)=CCc1c(O)cc(O)c2c1O[C@H](c1ccc(O)cc1)CC2=O` [Compound 5, 8-prenylnaringenin], the “Scavenging activity of compounds … (%)” value (ABTS radical assay) was 91.5 ± 0.1%, the IC50 (ABTS radical assay) was 7 ± 0.2 µM and the inhibition at 100 µM (tyrosinase [3]) was 27 ± 2.9%.
